Patent publication US20240059725A1, “COUMARIN COMPOUNDS AND A PROCESS FOR PREPARATION THEREOF” (priority 2021, published 2024)
Converted amounts (≈) assume the structure as drawn.

Assays:
[1] = system: Human colon carcinoma (HCT-116) cell line; experiment: Anticancer activity, MTT assay against HCT-116; format: cell-based; conditions: for IC50: Homo sapiens, HCT-116, interpolated from graph (FIG. 5)
Description: (§1) The anticancer activity of the compound (3) denoted as “P” and compound (4) denoted as “DP” was assessed invitro by MTT 3-(4,5-dimethylthiazol-2-yl)-2,5-diphenyltetrazolium bromide assay against Human colon carcinoma (HCT-116) cell lines and Human breast adenocarcinoma (MDA-MB-468) respectively.
(§2) RPMI-1640, fetal bovine serum (FBS), penicillin, streptomycin was procured from HiMedia (Mumbai, India). Doxorubicin, MTT 3-(4,5-dimethylthiazol-2-yl)-2,5-diphenyltetrazolium bromide were procured from Sigma Aldrich (USA). The chemicals used were of analytical or HPLC grade. Human breast adenocarcinoma (MDA-MB-468), Human colon carcinoma (HCT-116) was procured from NCCS, Pune, India. The cell line was grown in the RPMI-1640 with 2 mM L-glutamine, supplemented with 10% FBS, penicillin (100 IU/mL) and streptomycin (100 μg/mL) at 37° C. in a 95% humidified CO2 incubator with 5% CO2 atmosphere. The cell lines were passaged twice weekly for maintaining sub-confluent state.
(§3) MTT assay was used as cell viability assay. The principle of the assay lies in the fact that the MTT is reduced to formazan crystals by mitochondrial dehydrogenase of the viable cells. The anticancer activity of compounds (3) and (4) was assessed invitro by MTT 3-(4,5-dimethylthiazol-2-yl)-2,5-diphenyltetrazolium bromide assay based on the methods by Mosmann, T and Bose et.al. (Mosmann, T. Journal of Immunological methods. 1983, 65, 55-63; and Bose, D. S.; Idrees, M.; Jakka, N. M.; Rao, J. V. J. Comb. Chem. 2010, 12, 100-110). Doxorubicin (DXN) a known anticancer drug was used as a reference compound in the assay. The treated and untreated cells were washed with PBS (Phosphate buffer saline) and MTT (100 μg/ml) was added and incubated at 37° C. for 5 hr. The MTT was then removed, and the formazan crystals were dissolved by adding DMSO. The absorbance at 540 nm represents the viable cells. The absorbance was recorded using Multiskan spectrum, Thermo scientific. […] The absorbance from the untreated cells was defined as 100% viable cells. The % viable cells were plotted (Y-axis) against concentration (X-axis). The IC50 values were interpolated from the graphs of FIGS. 5 and 6.

RAW 264.7 cells = experiment: Flow cytometry analysis of Reactive Oxygen Species production (DCFDA) in LPS induced RAW cell line; format: cell-based; conditions: RAW cell line treated along with LPS, 48 hours
Description: RAW cell line was cultured in a T 25 flask in DMEM. After the cells reached confluency evel up to 90 percent, they were seeded in 6 well plates at 1 lakh cells/well. After adhesion of cells drugs were treated along with LPS and kept for 48 hours.
Flow cytometry analysis of Reactive Oxygen Species production on RAW cell line:
After 48 hr of treatment cells were harvested and stained with DCFDA and run-on flow cytometer.

HEK cell line = experiment: ROS production in HEK cell line; format: cell-based, Human
[2] = system: Human breast adenocarcinoma (MDA-MB-468) cell line; experiment: Anticancer activity, MTT assay against MDA-MB-468; format: cell-based; conditions: for IC50: Homo sapiens, MDA-MB-468, interpolated from graph (FIG. 6)
Description: as §1, §2, §3

[3] = Cytotoxicity MTT assay in HEK 293 cell line; format: cell-based; conditions: human, HEK 293 cells, 48 hr of treatment, read-out: IC-50 value (cytotoxicity)
Description: Human embryonic kidney HEK 293 cell line were cultured in complete DMEM (Dulbecco's modified eagle medium) high glucose medium with 10% foetal bovine serum and 1% Penicillin Streptomycin and grown at 37° C.in a humidified incubator with 5% CO2. The cells were grown in T-25 flasks till about 80% confluency and 5000cells/well were seeded in a 96 well cell culture plate.
After 24 hr the cells were treated with all the concentrations of the drug (compound (4)) in triplicates and incubated for 48 hr.
After 48 hr of incubation MTT was added at a concentration of 0.5 mg/ml and incubated at 37° C. for 4 hr. After 4 hr the media was discarded from each well and DMSO was added. After 30 mins of incubation at 37° C.the colorimetric data was taken at 570 nm.

CC1(C)OC2OC(COC(=O)c3cc4ccccc4oc3=O)C3OC(C)(C)OC3C2O1 (stereo not drawn) [Compound (3)]
Percentage of cell death ([1]; HCT-116, 1.0 μg/mL): 25.81 ± 0.015% | Percentage of cell death ([1]; HCT-116, 2.0 μg/mL): 44.01 ± 0.028% | Percentage of cell death ([1]; HCT-116, 5.0 μg/mL): 61.45 ± 0.006% | Percentage of cell death ([1]; HCT-116, 10.0 μg/mL): 75.01 ± 0.076% | Percentage of cell death ([1]; HCT-116, 25.0 μg/mL): 88.64 ± 0.018% | IC50 [1]: 3.8 µg/mL (≈ 8.79 µM)

O=C(OCC1OC(O)C(O)C(O)C1O)c1cc2ccccc2oc1=O (stereo not drawn) [Compound (4)]
ROS production (RAW 264.7 cells): able to produce ROS in all concentrations | ROS production (HEK cell line): no ROS production | IC50 [2]: 3.2 µg/mL (≈ 9.08 µM) | Percentage of cell death ([2]; MDA-MB-468, 1.0 μg/mL): 25.71 ± 0.003% | Percentage of cell death ([2]; MDA-MB-468, 2.0 μg/mL): 42.27 ± 0.026% | Percentage of cell death ([2]; MDA-MB-468, 5.0 μg/mL): 66.49 ± 0.007% | Percentage of cell death ([2]; MDA-MB-468, 10.0 μg/mL): 78.66 ± 0.018% | Percentage of cell death ([2]; MDA-MB-468, 25.0 μg/mL): 86.10 ± 0.015% | IC50 at 48 h [3]: > 1000 µg/mL

COc1cccc2c1C(=O)c1c(O)c3c(c(O)c1C2=O)C[C@@](O)(C(=O)CO)C[C@@H]3O[C@H]1C[C@H](N)[C@H](O)[C@H](C)O1 [DXN, Doxorubicin, reference compound]
Percentage of cell death ([1]; HCT-116, 1.0 μg/mL): 16.12 ± 0.001% | Percentage of cell death ([1]; HCT-116, 2.0 μg/mL): 31.68 ± 0.012% | Percentage of cell death ([1]; HCT-116, 5.0 μg/mL): 52.34 ± 0.015% | Percentage of cell death ([1]; HCT-116, 10.0 μg/mL): 63.76 ± 0.0031% | Percentage of cell death ([1]; HCT-116, 25.0 μg/mL): 73.45 ± 0.060% | IC50 [1]: 5 µg/mL (≈ 9.2 µM) | IC50 [2]: 5 µg/mL (≈ 9.2 µM) | Percentage of cell death ([2]; MDA-MB-468, 1.0 μg/mL): 16.12 ± 0.001% | Percentage of cell death ([2]; MDA-MB-468, 2.0 μg/mL): 31.68 ± 0.012% | Percentage of cell death ([2]; MDA-MB-468, 5.0 μg/mL): 52.34 ± 0.015% | Percentage of cell death ([2]; MDA-MB-468, 10.0 μg/mL): 63.76 ± 0.0031% | Percentage of cell death ([2]; MDA-MB-468, 25.0 μg/mL): 73.45 ± 0.060%
